In brackets after ≈: the same amount, converted by molar mass. Several values for one entry are separate records, joined by “and”; a condition that tells them apart may be missing. Equal values may be shown once.
How the values were obtained:
[1] = biological target: T1, acetylcholine esterase (AChE) (Rattus norvegicus, UniProt P37136); assay: Acetylcholine esterase inhibitory activity in β-amyloid peptide induced PC 12 cells; assay type: cell-based; settings: PC 12 cells
T1 construct: The cell extracts were used as samples for measuring the acetylcholine esterase (AChE) activity; endogenous in cells; host or cells: rat pheochromocytoma PC 12 cells, induced with β-amyloid peptide
T1 sequence (P37136 32-614): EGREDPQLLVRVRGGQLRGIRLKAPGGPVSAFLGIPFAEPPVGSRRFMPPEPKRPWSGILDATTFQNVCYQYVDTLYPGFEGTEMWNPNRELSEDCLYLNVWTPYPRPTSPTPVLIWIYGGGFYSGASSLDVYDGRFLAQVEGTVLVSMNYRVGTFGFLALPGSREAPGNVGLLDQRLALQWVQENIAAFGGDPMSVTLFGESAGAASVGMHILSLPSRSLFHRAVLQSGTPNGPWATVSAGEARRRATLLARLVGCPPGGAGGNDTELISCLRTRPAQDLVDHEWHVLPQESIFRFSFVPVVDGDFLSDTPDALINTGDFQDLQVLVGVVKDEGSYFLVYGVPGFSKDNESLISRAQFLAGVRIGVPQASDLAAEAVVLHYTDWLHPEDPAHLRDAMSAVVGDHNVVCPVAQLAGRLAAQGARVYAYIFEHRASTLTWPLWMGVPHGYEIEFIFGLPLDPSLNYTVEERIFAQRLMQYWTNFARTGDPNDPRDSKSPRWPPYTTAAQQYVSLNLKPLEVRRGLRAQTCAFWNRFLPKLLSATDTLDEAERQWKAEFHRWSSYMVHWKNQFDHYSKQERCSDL
Procedure: (§1) As a part of developing new agents for improving brain/mental function and alleviating disease conditions related to cognition and memory deficits, a large number of plant extracts have been screened for their inhibitory property on Acetylcholinesterase enzyme activity. The assay was performed in vitro by the method of Ellman et al., with minor modifications, using acetylthiocholine iodide as a substrate (Lee J. H., et. al. Arch Pharm Res 2004, 27(1): 53-56). […] Its acetylcholinesterase inhibitory activity was also evaluated by a cell based in vitro assay in Rat pheochromocytoma PC 12 cells. […] Rat pheochromocytoma PC 12 cells were equally distributed with phenol red free Dulbecco's modified Eagle's red medium (DMEM) (Sigma Life Science, USA) containing 10% fetal bovine serum (FBS) in 24-well plate. […] Thereafter, cells were induced with 1 μg/mL of β-amyloid peptide (Calbiochem, USA) for 24 h at 37° C. After 24 h, cells were collected and washed twice with 1×PBS by centrifugation at 1200 rpm for 5 min at 4° C. The cell extracts were prepared in solubilization buffer and the cell lysates were analyzed for acetylcholine esterase (AChE) activity.
The inhibitory property on the enzyme activity was assessed in β-amyloid peptide induced-rat pheochromocytoma PC 12 cells. Rat pheochromocytoma PC 12 cells were equally distributed with phenol red free Dulbecco's modified Eagle's red medium (DMEM) (Sigma Life Science, USA) containing 10% fetal bovine serum (FBS) in 24-well plate. […] Thereafter, cells were induced with 1 μg/mL of β-amyloid peptide (Calbiochem, USA) for 24 h at 37° C. After 24 h, cells were collected and washed twice with 1×PBS by centrifugation at 1200 rpm for 5 min at 4° C. Cell extracts were prepared in solubilization buffer (10 mM Tris, pH 7.2; 100 mM NaCl, 50 mM MgCl2, 1% Triton X-100). The cell extracts were used as samples for measuring the acetylcholine esterase (AChE) activity.
Cell extract samples (100 μl) were dispensed into each well of 96-well microtitre plate. Fifty micro liters of DTNB (Dithiobisnitro benzoate) solution was added to each well and incubated for 5 min at room temperature. After incubation, 50 μl of acetyl choline iodide solution was added to each well and absorbance was read immediately at 405 nm for 12 min at 2 min intervals. A standard curve was constructed by using serial concentrations of acetyl cholinesterase (0-100 mU). Total protein present in 100 μl aliquot of cell extract was calculated by Bradford method and the enzyme activity was normalized and expressed as unit activity per milligram of protein.

Sprague Dawley rats = assay: Spatial learning and memory improvement, elevated radial arm maze (RAM); assay type: in vivo, rat; settings: positive control 150 mg/kg, vs control group
Description: The animal study protocol was approved by institutional animal ethics committee. Sprague Dawley rats were acclimatized for one week and healthy rats were selected for the study. The selected rats were pre-trained in elevated radial arm maze (RAM) adapted rats were allocated to various treatment groups each containing eight rats. After completion of pre-training, the oral treatment was initiated to the animals and continued daily up to two weeks. During this treatment phase the rats were placed on the RAM for 10 min each to recognize the food pellets present in the three different colored arms. During training the spatial learning was estimated by measuring various parameters like number of days required to learn the task, latency in finding food and number of wrong entries/attempts. After this treatment and training the animals were given rest without treatment or training for one week (3rd week). On 4th week, the animals were treated with allocated doses of test products and memory retention test was assessed using the same animals by measuring latency and number of wrong entries. The data was analyzed using ANOVA followed by a suitable post-hoc test.

Acetylcholinesterase = Acetylcholinesterase (Homo sapiens, UniProt P22303); assay: Acetylcholinesterase inhibitory activity, in vitro enzymatic assay (Ellman method); assay type: biochemical; settings: Table 3
Sequence of Acetylcholinesterase (P22303 32-614, species assumed): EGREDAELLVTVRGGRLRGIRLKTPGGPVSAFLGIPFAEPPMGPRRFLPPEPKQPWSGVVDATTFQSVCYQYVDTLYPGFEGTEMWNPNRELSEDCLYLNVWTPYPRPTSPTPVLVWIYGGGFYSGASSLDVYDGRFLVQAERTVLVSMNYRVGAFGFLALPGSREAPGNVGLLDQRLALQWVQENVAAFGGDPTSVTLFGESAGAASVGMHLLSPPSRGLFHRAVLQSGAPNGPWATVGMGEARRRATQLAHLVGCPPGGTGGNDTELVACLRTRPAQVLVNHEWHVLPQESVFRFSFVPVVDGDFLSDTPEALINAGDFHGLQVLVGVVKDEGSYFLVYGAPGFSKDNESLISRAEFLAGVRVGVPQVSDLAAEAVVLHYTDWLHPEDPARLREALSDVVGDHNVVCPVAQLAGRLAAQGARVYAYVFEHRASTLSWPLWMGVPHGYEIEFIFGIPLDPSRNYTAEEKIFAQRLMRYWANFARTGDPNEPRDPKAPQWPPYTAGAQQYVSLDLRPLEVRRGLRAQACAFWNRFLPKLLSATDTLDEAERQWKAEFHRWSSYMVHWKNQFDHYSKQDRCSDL
Procedure: as §1
Acetylcholinesterase activity is measured using the substrate acetylthiocholine iodide, which is converted to thiocholine. The reaction of thiocholine with the chromogenic substrate Dithionitrobenzoic acid (DTNB) leads to the formation of a yellow anion, Nitrobenzoic acid, which absorbs strongly at 412 nm. Incubation was done for 10 min.
The AChE assay was performed by the method of Ellman et al, with minor modifications, using acetylthiocholine iodide as a substrate (Lee J. H., et. al. Arch Pharm Res 2004, 27(1): 53-56). Ellmans reaction mixture contains 0.5 mM acetylthiocholine iodide and 1 mM 5,5′-dithio-bis-(2-nitrobenzoic acid) in a 50 mM sodium phosphate buffer (pH 8.0). […] For blanks, enzyme was replaced with phosphate buffer. The reaction mixture was mixed thoroughly, 100 μl of Ellman's reagent was added and incubated at room temperature for 10 min. The absorbance was measured at 412 nm using microplate reader. The percentage inhibition of enzyme activity was calculated by comparing OD's of tests wells with that of control wells using the following formula. Calculations: % inhibition=[(control−sample)/control]×100.

[2] = Comparative bioavailability of LI01008 (bisdemethylcurcumin) and its composition (serum, HPLC); settings: oral, LI13124F1 450 mg/kg, LI01008 300 mg/kg
5-lipoxygenase (5-LOX) = biological target: T2, 5-lipoxygenase (5-LOX) (Homo sapiens, UniProt P09917); settings: read-out: IC50 (5-LOX inhibition); cited from earlier work
T2 sequence (P09917 1-674): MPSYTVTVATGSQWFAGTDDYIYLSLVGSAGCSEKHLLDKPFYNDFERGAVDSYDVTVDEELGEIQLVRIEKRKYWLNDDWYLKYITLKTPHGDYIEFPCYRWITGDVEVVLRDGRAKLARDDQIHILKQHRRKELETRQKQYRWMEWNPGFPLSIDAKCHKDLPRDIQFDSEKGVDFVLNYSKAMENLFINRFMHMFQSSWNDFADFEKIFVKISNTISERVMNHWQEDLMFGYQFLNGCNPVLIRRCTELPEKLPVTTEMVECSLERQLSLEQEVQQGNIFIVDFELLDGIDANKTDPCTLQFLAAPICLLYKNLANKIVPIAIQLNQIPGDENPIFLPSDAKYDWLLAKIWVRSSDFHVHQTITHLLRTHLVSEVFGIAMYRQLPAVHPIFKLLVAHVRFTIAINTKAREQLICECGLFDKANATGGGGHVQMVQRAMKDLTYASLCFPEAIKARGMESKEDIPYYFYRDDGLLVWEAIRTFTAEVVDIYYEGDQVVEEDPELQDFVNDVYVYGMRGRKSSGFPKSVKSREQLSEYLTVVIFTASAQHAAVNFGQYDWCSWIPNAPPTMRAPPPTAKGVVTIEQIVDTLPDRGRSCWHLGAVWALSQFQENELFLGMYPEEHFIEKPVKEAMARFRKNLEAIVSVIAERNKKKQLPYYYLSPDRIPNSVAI

Row | Compound | % Inhibition at concentrations of 25 ng (Acetylcholinesterase) [%] | % Inhibition at concentrations of 50 ng (Acetylcholinesterase) [%] | % Inhibition at concentrations of 100 ng (Acetylcholinesterase) [%] | IC50 (Acetylcholinesterase) [µg/mL] | % inhibition in AChE activity ([1]; 100 ng/ml, Table 5) [%] | further results
1 | CN(C)C(=O)Oc1cccc([N+](C)(C)C)c1 [Neostigmin] | – | – | – | – | – | % inhibition in AChE activity ([1]; 20 ng/ml, Table 4): 49.1% and 49.09%; % inhibition in AChE activity ([1]; 20 ng/ml, Table 5): 54.65%
2 | NC(=O)CN1CCCC1=O [Piracetam] | – | – | – | – | – | spatial learning (reduction in latency and Number of wrong entries) (Sprague Dawley rats): significant improvement
3 | CC1(C)CC[C@]2(C)CC[C@]3(C)C(=CC[C@@H]4[C@@]5(C)CC[C@@H](O)[C@](C)(C(=O)O)[C@@H]5CC[C@]43C)[C@@H]2C1 [α-boswellic acid] | 13.85 | 21.92 | 39.23 | >0.1 | 38.42 | –
4 | CC(=O)O[C@@H]1CC[C@@]2(C)[C@@H](CC[C@]3(C)[C@@H]2CC=C2[C@@H]4CC(C)(C)CC[C@]4(C)CC[C@]23C)[C@@]1(C)C(=O)O [3-O-acetyl-α-boswellic acid] | 14.86 | 21.28 | 33.11 | >0.1 | 29.22 | –
5 | O=C(/C=C/c1ccc(O)c(O)c1)CC(=O)/C=C/c1ccc(O)c(O)c1 [LI 01008, bisdemethylcurcumin] | – | – | – | – | – | Serum concentration of bisdemethylcurcumin ([2]; time after admn. 0, suspension in 0.5% CMC): 0; Serum concentration of bisdemethylcurcumin ([2]; time after admn. 0.5 (hours)): 0.07; Serum concentration of bisdemethylcurcumin ([2]; time after admn. 1 (hours)): 0.1085; Serum concentration of bisdemethylcurcumin ([2]; time after admn. 2 (hours)): 0.078; Serum concentration of bisdemethylcurcumin ([2]; time after admn. 4 (hours)): 0.035; Serum concentration of bisdemethylcurcumin ([2]; time after admn. 6 (hours)): 0.00535; Serum concentration of bisdemethylcurcumin ([2]; time after admn. 8 (hours)): 0; Serum concentration of bisdemethylcurcumin ([2]; time after admn. 12 (hours)): 0
6 | 3-O-acetyl-11-keto-β-boswellic acid | 9.64 | 16.07 | 27.5 | >0.1 | 41.67 | IC50 (5-lipoxygenase (5-LOX)): 1500 nM
7 | C[C@H]1[C@H](C)CC[C@]2(C)CC[C@]3(C)C(=CC[C@@H]4[C@@]5(C)CC[C@@H](O)[C@](C)(C(=O)O)[C@@H]5CC[C@]43C)[C@H]12 [β-boswellic acid] | 16.75 | 21.23 | 31.37 | >0.1 | 46.54 | –
8 | CC(=O)O[C@@H]1CC[C@@]2(C)[C@@H](CC[C@]3(C)[C@@H]2CC=C2[C@@H]4[C@@H](C)[C@H](C)CC[C@]4(C)CC[C@]23C)[C@@]1(C)C(=O)O [3-O-acetyl-β-boswellic acid] | 36.29 | 40.32 | 52.02 | 0.09177 (≈ 0.184 µM) | 37.34 | –
9 | C[C@H]1[C@H](C)CC[C@]2(C)CC[C@]3(C)C(=CC(=O)[C@@H]4[C@@]5(C)CC[C@@H](O)[C@](C)(C(=O)O)[C@@H]5CC[C@]43C)[C@H]12 [11-keto-β-boswellic acid] | 11.82 | 16.36 | 24.55 | >0.1 | 31.39 | –
